# Assay results from patent US9790218B2, “Small molecule activators of calcium-activated chloride channels and methods of use” (The Regents of the University of California, priority 2011, dated 2017).
# Assays:
# [1] = tested on: CF human bronchial epithelial (CF HBE) cells; assay: Short-circuit current in CF HBE cells; format: cell-based; details: no IL-4; UTP 100 μM
# Procedure: FIG. 5A-B. Airway epithelial chloride secretion. FIG. 5A. Short-circuit current in CF HBE cells. Eact and UTP (100 μM) were added in control (left) and IL-4 (10 ng/ml, 24 h, middle) treated CF HBE cells. (right) Summary of Eact-induced, T16Ainh-A01-sensitive peak current (mean±S.E., n=6-8, * P<0.05). ENaC was inhibited by 10 μM amiloride. FIG. 5B. Eact (10 μM) and UTP (100 μM) induced CaCC Cl^− current measured in primary cultures of non-CF human tracheal gland (HTG) serous cells. (left and gmiddle) TMEM16A, CFTR and ENaC were inhibited by pretreatment with T16Ainh-A01, CFTRinh-172 and amiloride, respectively. Inset: TMEM16A immunoblot in whole cell homogenates of CF HBE and HTG cells. (right) Summary of UTP and Eact-induced peak current in the presence and absence of T16Ainh-A01 (mean±S.E., n=3, * P<0.05).
# Tracheal and bronchial tissues were obtained from non-CF and CF patients following lung transplantation or from postmortem examinations performed within 24 h after death. […]
# (§1) Snapwell inserts containing TMEM16A-expressing FRT, HBE, CF HBE or HTG cells were mounted in Ussing chambers (Physiologic Instruments, San Diego, Calif.). […] Apical membrane current (for FRT cells) and short-circuit current were measured using an EVC4000 Multi-Channel V/I Clamp (World Precision Instruments, Sarasota, Fla.) and recorded using PowerLab/8sp (AD Instruments, Castle Hill, Australia).
# [2] = tested on: non-CF human tracheal gland (HTG) serous cells; assay: Short-circuit current in human tracheal gland (HTG) serous cells; format: cell-based; details: Eact 10 μM, UTP 100 μM
# Procedure: FIG. 5A-B. Airway epithelial chloride secretion. FIG. 5A. Short-circuit current in CF HBE cells. Eact and UTP (100 μM) were added in control (left) and IL-4 (10 ng/ml, 24 h, middle) treated CF HBE cells. (right) Summary of Eact-induced, T16Ainh-A01-sensitive peak current (mean±S.E., n=6-8, * P<0.05). ENaC was inhibited by 10 μM amiloride. FIG. 5B. Eact (10 μM) and UTP (100 μM) induced CaCC Cl^− current measured in primary cultures of non-CF human tracheal gland (HTG) serous cells. (left and gmiddle) TMEM16A, CFTR and ENaC were inhibited by pretreatment with T16Ainh-A01, CFTRinh-172 and amiloride, respectively. Inset: TMEM16A immunoblot in whole cell homogenates of CF HBE and HTG cells. (right) Summary of UTP and Eact-induced peak current in the presence and absence of T16Ainh-A01 (mean±S.E., n=3, * P<0.05). […]
# as §1, with “Australia). […]” for “Australia).”
# [3] = tested on: human bronchi submucosal glands; assay: Airway submucosal gland fluid secretion in human bronchi; details: serosal application; 300 nM carbachol, 20 μM Eact
# Procedure: FIG. 6A-C. Airway submucosal gland fluid secretion in human bronchi. FIG. 6A. TMEM16A immunohistochemistry in CF (left) and non-CF (right) human bronchi showing apical membrane expression in serous gland epithelial cells (arrows). Scale bar: 20 μm. FIG. 6B. Mucous (fluid) secretion in human bronchi. (top) Images of mucus bubbles formed under oil in response to basolateral application of 300 nM carbachol (CCh) and 20 μM Eact. TMEM16A was inhibited by 30 μM T16Ainh-A01. Individual fluid bubbles marked with arrowheads. Scale bar: 0.5 mm. (bottom) CCh and Eact-induced secretion rates. Where indicated, tissues were pre-treated with T16Ainh-A01 (30 μM). Each point is the average of measurements made from 20 glands (mean±S.E. * P<0.05). FIG. 6C. Summary of human gland fluid secretion rates measured at 20 min after addition of 20 μM Eact, and 30 min after application of 300 nM carbachol (CCh) and 10 μM forskolin (20-66 glands from 3 tracheas and 4 bronchus). In CF-bronchi, 6 glands from one donor were stimulated by Eact. […]
# Similar staining was found in non-CF and CF human bronchi. Fluid secretion was measured in individual submucosal glands from the increasing size of mucus (fluid) bubbles in which airway fragments were mounted in a 37° C. perfusion chamber and the mucosal solution was covered with oil.
# [4] = tested on: mouse ileal smooth muscle; assay: Intestinal smooth muscle contraction, ex vivo mouse ileal segments; details: carbachol 1 μM
# Procedure: FIG. 8A-C. Intestinal smooth muscle contraction. FIG. 8A. Representative traces from mouse ileal segments showing effects of T16Ainh-A01 (10 μM), carbachol (CCh, 1 μM) and Eact (10 μM). FIG. 8B. Effect of CCh (1 μM) and Eact (10 μM) following atropine (1 μM). FIG. 8C. Summary of contraction frequency (left), and resting and maximum tone (right) (mean±S.E., n=4-7, * P<0.05).
# Wild type CD1 mice (age 8-10 weeks) were killed by avertin overdose (200 mg/kg). The ileum removed and washed with ice-cold HCO3^−-buffered solution. The ends of the ileal segments were tied with silk thread and connected to a force transducer. Beal segments were equilibrated for 60 min with a resting force of ˜1 mN, with changes of the bathing solution every 15 min. Tension was monitored continuously with a fixed-range precision force transducer (TSD, 125 C; Biopac, Goleta, Calif.) connected to a differential amplifier (DA 100B; Biopac). Data were recorded using MP100, Biopac digital acquisition system and analyzed using Acknowledge 3.5.7 software.
# TMEM16A in expressed in the interstitial cells of Cajal, the pacemaker cells that control smooth muscle contraction dynamics in stomach and intestine (Huang et al., supra; Gomez-Pinilla et al. (2009) Am. J. Physiol. Gastrointest. Liver Physiol. 296, G1370-1381). The effect of Eact on mouse ileal smooth muscle contraction was investigated using an ex vivo intestinal preparation. […] Without wishing to be bound by theory, the constitutive TMEM16A activity in this ex vivo preparation could obscure Eact activity. To reveal Eact effects, atropine was first added to inhibit basal contractions. […] FIG. 8C summarizes data on contraction frequency, resting tone and maximal tone.
SMILES,Cl^− current in untreated CF bronchial epithelial cells [1],Cl^− current in HTG serous cells [2],gland fluid secretion rate [3],contraction frequency [4],"resting and maximum tone ([4]; Eact 10 μM, no atropine)"
"O=c1ccn([C@@H]2O[C@H](COP(=O)(O)OP(=O)(O)OP(=O)(O)O)[C@@H](O)[C@H]2O)c(=O)[nH]1 [UTP, reference compound]",produced a large Cl^− current,increased Cl^− current,–,–,–
C[N+](C)(C)CCOC(N)=O [carbachol],–,–,significantly increased secretion,without change in contraction frequency,increased
